The source of these data is patent publication US20180296561A1, “The Methods For Treatment Of Tumors” (The University of North Carolina at Chapel Hill, priority 2015, published 2018).

Assay [1] has as its system monocytes and macrophages that expressed MerTK. Particulars: addition of UNC569; cited from earlier work.
The test system of a further assay is melanoma cells. Particulars: cited from earlier work.
Assay [2] concerns non-small cell lung cancer (NSCLC) and acute myeloid leukemia (AML) tumor cell lines. To be noted: cited from earlier work.
For another assay, the system named is melanoma. To be noted: melanoma mouse model, therapeutic doses; cited from earlier work.
The subject of another assay is B16 melanoma. As to the kind of experiment: B16 melanoma mouse model with radiation therapy (XRT), secondary tumor. It is filed as in vivo. The protocol:
MerTK ihibitors were analyzed in combination with immune checkpoint inhibitors in a B16 melanoma mouse model for their effect on secondary tumor growth in mice treated with radiation therapy (XRT). XRT is performed according to the following schematic:
Briefly, XRT (8 Gy) was given on days 9, 10, and 11. UNC2371 was given at a dose of 50 mg/kg, by oral gavage, qd, initiated at Day 8. Anti-PD1 was given at 200 μg IP on days 6, 9, and 12. Eight mice were analyzed in each treatment arm (XRT, MerTKi, anti-PD1, anti-PD1+MerTKi, XRT+MerTKi, XRT+anti-PD1, and XRT+anti-PD1+MerTKi). Tumors were implanted on both flanks, and the secondary tumor was shielded during XRT treatment. The secondary tumor was assessed for impact of abscopal effect.

Assay [3] relates to myeloid-derived suppressor cells (MDSCs). As to the kind of experiment: mRNA expression in myeloid-derived suppressor cells from B16/F10 tumor-bearing mice. It is filed as in vivo, mouse. The protocol: To evaluate the effect of MerTK inhibitors on myeloid-derived suppressor cells (MDSCs), C57BL/6 B16/F10 melanoma cells were implanted into syngeneic mice and tumors are allowed to form. Once tumors reached 5 mm in diameter, mice received either vehicle (0.9% NaCl) or 10, 25 or 50 mg/kg UNC2371 for 5 days. Initial experiments determined the lowest dose capable of altering the immune system. Myeloid-derived suppressor cells (MDSCs) were isolated from the spleens of tumor-bearing mice by fluorescence activated cell sorting using the cell surface markers CD11b^+Ly6G^−Ly6C^high and G-MDSCs by CD11b^+Ly6G^highLy6C^low. MDSCs' suppressive capabilities were assessed by the level of RNA for M2 capabilities.

The next assay relates to Colon26 tumor cells. The assay is described as follows: Colon26 syngeneic colon carcinoma model: tumor volume, time to endpoint, survival. It is filed as in vivo, Female BALB/c mice. Particulars: for median time to endpoint (TTE): endpoint 1000 mm^3 or 45 days; for tumor growth delay (TGD) / tumor growth delay (TGD), percent / mice remaining through day 15: alone or with the antibody in the label; for mice remaining through day 15: n=9. The protocol:
Female BALB/c mice were injected with 5×10^5 Colon26 tumor cells in 0% Matrigel sc in flank. The cell injection volume was 0.1 mL/mouse. Mice were between 7 to 10 weeks at the start of the experiment. When tumors reached an average size of 80-120 mm^3, treatment was begun. Body weight was measured five times per week for the first two weeks and then twice per week to the end of the experiment. Tumor volume was measured by caliper measurement twice per week to the end of the experiment. […] Any group with a mean body weight loss of greater than 20% or greater than 10% mortality was stopped dosing. The group was not euthanized and recovery was allowed. Within a group with greater than 20% weight loss, individuals hitting the individual body weight loss endpoint were euthanized. The endpoint of the experiment was a tumor volume of 1000 mm^3 or 45 days, whichever endpoint came first. When the endpoint was reached, the mice were euthanized.
UNC2371 was prepared in salt form and the dosing solution was prepared every day. UNC2371 was prepared in deionized water. All doses represent total substance dosed by weight of compound (including salt weight). […] Dosing solution was prepared at 5 mL/kg (0.100 mL/20 g mouse) and volume was adjusted accordingly for body weight. Dosing solutions of anti-CTLA4 9H10 (BioXcell cat# BE0131) and anti-PD1 RMP1-14 (rat Ig—BioXcell cat# BE0146) were prepared in PBS every week, stored at 4° C., and protected from light. Dosing solution was prepared at 10 mL/kg (0.200 mL/20 g mouse) and volume was adjusted accordingly for body weight.
Mice were randomized into twelve different experimental groups. Group 1 received deionized water via oral gavage (p.o.) three times daily for twenty-one days, starting with two doses on Day 1 (tid×21 first day two doses) and PBS i.p. twice weekly for two weeks (biwk×2). Groups 2-4 received UNC2371 via oral gavage (p.o.) three times daily for twenty-one days, starting with two doses on Day 1 (tid×21 first day two doses). Dosing amounts for UNC2371 for Groups 2-4 were 1, 5 and 15 mg/kg, respectively. Group 5 received anti-PD1 mAb at a dosage of 5 mg/kg i.p. biwk×2. Group 6 received anti-CTLA4 mAb at a dosage of 5 mg/kg on Day 1 and at 2.5 mg/kg on Days 4 and 7. Groups 7-9 received UNC2371 (p.o. tid×21, first day two doses) at 1, 5 and 15 mg/kg, respectively, in combination with anti-PD1 (5 mg/kg i.p. biwk×2). Groups 10-12 received UNC2371 (p.o. tid×21, first day two doses) at 1, 5 and 15 mg/kg, respectively, in combination with anti-CTLA4 (5 mg/kg on Day 1 and at 2.5 mg/kg on Days 4 and 7).

Assay [4] deals with Colon26 murine colon carcinoma. The assay is described as follows: Flow cytometry of immune cells in tumor and PBMCs, Colon26 model, Day 8. It is filed as in vivo, mouse. The protocol: Tumor samples and blood samples were analyzed by flow cytometry to determine the effect of a MerTK inhibitor on immune cells alone or in combination with an immune checkpoint inhibitor in the Colon26 murine colon carcinoma mouse model. In the following example, the MerTK inhibitor UNC2371 was examined in combination with the immune checkpoint inhibitors anti-CTLA4 and anti-PD1. Experiments were performed as described in Example 3 above, except that mice in each group were euthanized at Day 8, and tumor tissue and blood samples were collected. Blood samples were collected by terminal cardiac puncture under isoflurane anesthesia. Blood was processed for peripheral blood monocyte cells (PBMCs; enriches the white cell population). Flow cytometry was conducted to identify specific white cell populations in both the PBMCs as well as the tumor cells. Tumor samples were preserved (single cell suspension) and maintained at −4° C.
On the technique in general: In flow cytometry, cells or beads pass a laser one at a time.

In assay [5] the test system is Colon26 murine colon carcinoma. The assay is described as follows: Immunohistochemistry of Colon26 tumors (CD3, F4/80, survivin). Type of assay: in vivo, mouse. The protocol:
Tumors from 2 to 3 mice per treatment group were formalin fixed and paraffin embedded. The samples were analyzed by immunohistochemistry for several biological markers (data not shown). T cells (cell marker=CD3) were increased in the 1 mg/kg UNC2371 (low dose) monotherapy arm and 1 mg/kg UNC2371/anti-CTLA4 combination treatment arm compared to vehicle. […] Macrophages (cell marker F4/80) were highest in group 6 (anti-CTLA4) and group 10 (UNC2371 1 mg/kg+anti-CTLA4) with similar staining seen in these two groups. […] Tumors were also analyzed for survivin staining.

The test system of the next assay is AML. Particulars: cited from earlier work.

Each structure is given as a SMILES string.

`CCCCNc1ncc2c(-c3ccc(F)cc3)nn(CC3CCC(N)CC3)c2n1` (stereo not drawn) [UNC569]: in assay [1], the “production of inflammatory cytokines” value was “restored”.
For the compound `CCCCNc1ncc2c(-c3ccc(S(=O)(=O)N4CCOCC4)cc3)nn(C3CCC(O)CC3)c2n1` (stereo not drawn) [UNC1062], in the assay on melanoma cells, the “activation of MERTK-mediated downstream signaling” value was “reduced”, the apoptosis in culture entry is given as “induced”, the “colony formation in soft agar” value was “reduced” and the “invasion of melanoma cells” value is “inhibited”.
With `CCCCNc1ncc2c(-c3ccc(CN4CCN(C)CC4)cc3)cn(C3CCC(O)CC3)c2n1` (stereo not drawn) [UNC2025A], the colony formation result in assay [2] is on record as “can inhibit colony formation”. The survival entry in the assay with melanoma is on record as “survival advantage”.
In the case of `CN1CCN(Cc2ccc(-c3cn(C4CCC(O)CC4)c4nc(NCCC5CC5)ncc34)cc2)CC1` (stereo not drawn) [UNC2371], the “secondary tumor volume compared with XRT alone” value in the assay on B16 melanoma (UNC2371 50 mg/kg oral gavage qd from Day 8, anti-PD1 200 μg IP days 6, 9, 12, FIG. 22A) is “more effective than XRT alone”. In the assay on B16 melanoma (XRT+UNC2371 vs XRT, FIG. 22C), the “tumor derived myeloid-derived suppressor cells (MDSCs)” value is “decrease”. The “abscopal effect on the secondary tumor” value with B16 melanoma (with XRT 8 Gy days 9, 10, 11, UNC2371 50 mg/kg qd, anti-PD1 200 μg IP, FIG. 22B) is “enhanced the abscopal effect”. The “arginase mRNA expression” value in assay [3] (25 mg/kg UNC2371 for 5 days vs vehicle control) is given as “decrease”. Also, the “iNOS (inducible nitric oxide synthase) mRNA expression” value in assay [3] (10, 25, or 50 mg/kg UNC2371 for 5 days vs vehicle control) was “decrease”. Also, the “IDO (indoleamine 2,3-dioxygenase) mRNA expression” value in [3] (10 or 25 mg/kg UNC2371 for 5 days vs vehicle control) was “decrease”. In the assay on Colon26 tumor cells (anti-CTLA4, anti-PD1 and low dose UNC2371 as single agents, FIGS. 16 to 18), the single agent efficacy result was “failed to demonstrate single agent efficacy”. Besides, the “median time to endpoint (TTE)” value in the assay with Colon26 tumor cells (high dose UNC2371 15 mg/kg TID p.o. x21, alone or with the antibody in the label) was 20.7 days; in the assay on Colon26 tumor cells (low dose UNC2371 1 mg/kg TID p.o. x21, alone or with the antibody in the label), 14.0 days; in the assay on Colon26 tumor cells (mid dose UNC2371 5 mg/kg TID p.o. x21, alone or with the antibody in the label), 16.7 days. For the same compound, the “tumor growth delay (TGD)” value with Colon26 tumor cells (high dose UNC2371 15 mg/kg TID) turned out to be 6.9 days; with Colon26 tumor cells (low dose UNC2371 1 mg/kg TID) it was 0.2 days; with Colon26 tumor cells (mid dose UNC2371 5 mg/kg TID), 2.9 days. The results for the “tumor growth delay (TGD), percent” value with Colon26 tumor cells (high dose UNC2371 15 mg/kg TID), in the assay on Colon26 tumor cells (low dose UNC2371 1 mg/kg TID) and with Colon26 tumor cells (mid dose UNC2371 5 mg/kg TID) were 50%, 1% and 21%, respectively. For the same compound, the “mice remaining through day 15” value in the assay on Colon26 tumor cells (high dose UNC2371 15 mg/kg TID) is given as 8/9; with Colon26 tumor cells (low dose UNC2371 1 mg/kg TID), 3/9; with Colon26 tumor cells (mid dose UNC2371 5 mg/kg TID), 6/9. The “CD8+ cells in the tumor” value in [4] (Day 8, FIG. 19, combination: low dose or medium dose UNC2371) is “increase”. Further, in assay [4] (Day 8, FIG. 20), the “Natural Killer (NK) cells in the tumor” value is “increase”. Further, the “T cell (CD3 marker) penetration into the core of the tumor” value in assay [5] is listed as “notable increase”. Further, the “T cells (cell marker CD3) in tumor compared to vehicle” value in assay [5] (1 mg/kg UNC2371 (low dose)) is recorded as “increased”. Besides, the survivin staining result in assay [5] (low dose 1 mg/kg UNC2371) was “markedly decreased staining”.
`CCCCNc1ncc2c(-c3ccc(S(=O)(=O)N4CCOCC4)cc3)cn(C3CCC(O)CC3)c2n1` (stereo not drawn) [UNC 1666]: in the assay with AML, the “myeloid survival in AML” value is recorded as “decreases” and the “oncogenic signaling in AML” value is listed as “decreases”.
